{"source": "patent US9895407B2", "about": "“Disinfecting formulations and uses thereof” (Sunny Wipes Pty Ltd, priority 2011, dated 2018)", "key": {"[1]": {"test_system": "hand microflora", "assay": "Surgical handrub test, EN 12791:2005", "type": "in vivo, human", "conditions": "5 volunteers, 60 seconds exposure, right hand under sterile glove for 3 hours", "procedure": "The protocol is based upon European standard EN 12791:2005 designed for testing “Chemical disinfectants and antiseptics—Surgical hand disinfectant”.\nThe clean and healthy hands (free of cuts and abrasions and with short, clean fingernails) of 5 volunteers were initially washed for 1 min with soap and water and dried with paper towel. To establish base line flora levels the fingertips and thumb were rubbed for 1 minute on the base of a petri dish containing 10 ml of Tryptone Soy Broth (TSB). A separate petri dish was used for each hand. Dilutions of 10^−2 and 10^−3 were prepared from the TSB that were assayed by the pour-plate method using Tryptone Soy Agar (TSA) plates.\nImmediately after sampling for the baseline and without recontamination of the hands the subjects performed the handrub test. The subjects were split into two groups which were alternately treated with the standard formulation or the test formulation initially and then the other formulation, separately by a week to allow re-colonisation of native flora. […]\nLog10, values for immediate effect and sustained effect were then determined and a Log Reduction Factor for both test formulation and standard formulation were calculated based on the average difference between the log10 pre-value and the log10 post-value in each subject."}, "[2]": {"test_system": "Escherichia coli (NCTC 10538)", "assay": "Hygienic handwash/handrub test, EN 1500:1997, artificially contaminated hands", "type": "in vivo", "conditions": "60 second rub", "text": "The protocol is based upon European standard EN 1500:1997 designed for testing “Chemical disinfectants and antiseptics—Hygienic handwash”. The subjects (15 volunteers with clean and healthy hands that were free of cuts and abrasions and having short, clean fingernails) were split into two approximately equal groups which were alternately treated with the standard formulation or the test formulation initially and then the other formulation, separately by a one day. The hands of the subjects were initially washed for 1 min with soap and water and dried with paper towel. […] Excess fluid was allowed to drain back into the container. Hands were air dried for 3 minutes, holding them in a horizontal position. Each subject was encouraged to rotate their hands to avoid the formation of droplets. Each subject was treated from the same batch of contamination fluid. After drying, fingertips and thumb were rubbed for 1 minute on the base of a Petri-dish, which contained 10 mL of TSB. A separate Petri-dish for each hand (Left and Right) was used. This was the Pre-value. Dilutions of 10^−4 and 10^−5 were prepared using sterile Peptone Water (PEP). Each dilution was spread onto pre-poured, dried TSA plates. […] This procedure was completed with a 5 second rinse of fingers under running tap water. For the test formulation, 3 mL of test product was dispensed onto the subject's hands and rubbed over for 30 seconds using the standard procedure as instructed. This was done twice to give total of 6 mL test product over 60 second rub. The test product procedure was completed with a 5 seconds rinse of fingers under running tap water. […] Dilutions of 10^0, 10^−1 and 10^−2 were spread on pre-poured and dried TSA plates. All plates were incubated at 36° C.±2° C. for 24-48 hours. After the incubation period, all the plates were checked and colony forming units on both standard and test sample were counted. Dilutions with counts that are within 15-300 cfu were used in the computation. Plates showing less than 15 cfu or no growth were also counted. […] The test culture used in this study was obtained from the University of New South Wales Culture Collection—Escherichia coli (NCTC 10538) A neutralizer validated according to prEN 12054 were incorporated in the sampling fluids and diluents for the assessment of post-values in both test and reference procedure. […] The test organism was freshly revived from frozen protect beads by sub culturing in two McCartney bottles containing 5 mL of TSB. They were incubated at 37° C. These cultures are then inoculated into two bottles containing 1 L TSB. They were incubated at 37° C. for 18-24 hours The cultures were pooled into a sterile bottle to prepare the bacterial suspension. […] For testing this product, a cross-over design was used. […]"}, "[3]": {"test_system": "Escherichia coli (NCTC 10538)", "assay": "Hygienic handwash/handrub test, EN 1500:1997, artificially contaminated hands", "type": "in vivo", "conditions": "N = 14 subjects"}, "[4]": {"conditions": "per subject and hand, duplicate plates, 2 x 3 mL"}}, "note": "Where “and” joins values, the source holds several entries; their conditions need not be identical. Identical values can stand only once.", "data": [{"smiles": "CCCO", "note": "[60% propan-1-ol, propan-1-ol]", "values": [{"measurement": "reduction of hand microflora, after 3 hours", "setting": "[1]", "value": 1.89, "unit": "Logs"}]}, {"smiles": "CC(C)O", "note": "[60% propan-2-ol, propan-2-ol]", "values": [{"measurement": "Postvalues", "setting": "[2]; per subject and hand (L/R), after 2 x 3 mL", "value": "625 and 5 (3×) and 0 (2×) and 235 (2×) and 455 and 52 and 127 and 240 and 1415 and 2050 and 5950 and 4 and 165 and 125 and 690 and 250 and 210 and 21 and 61 and 30 and 74 and 7 and 22 and 1530"}, {"measurement": "Number of cfu per plate, Postvalues, dilution 10^-0", "setting": "[2]; [4]", "value": "TNTC/TNTC (14×) and 42/41 and 0/0 (3×) and 5/4 and 58/46 and 134/120 and 4/3 and 5/5 and 246/275 and 232/182 and 19/22 and 54/69 and 86/62 and 3/10 and 21/22"}, {"measurement": "Number of cfu per plate, Postvalues, dilution 10^-1", "setting": "[2]; [4]", "value": "108/94 and 9/3 and 177/129 and 62/63 and 1/0 and 5/3 and 0/0 (6×) and 20/27 and 50/41 and 2/0 and 26/22 and 141/142 and TNTC/TNTC (2×) and 0/5 and 18/15 and 9/16 and 17/30 and 62/76 and 26/24 and 19/23 and 8/8 and 1/5 and 1/11 and 1/2"}, {"measurement": "Number of cfu per plate, Postvalues, dilution 10^-2", "setting": "[2]; [4]", "value": "5/16 and 0/3 and 11/19 and 2/4 and 0/0 (12×) and 0/1 (2×) and 2/1 and 3/9 and 7/3 and 11 cfu and 16/ cfu and 56/ cfu and 0/2 and 1/0 and 10/9 and 17 cfu and 1/2 and 3/5"}, {"measurement": "Log Y, average of subjects", "setting": "[3]", "value": 1.97}]}]}
